Measured values published in patent US8624027B2, “Combination therapy for treating cancer and diagnostic assays for use therein” (AbbVie Inc., priority 2005, dated 2014).

Key:
HCT116 tumors = assay: HCT116 tumor xenograft in mice; type: in vivo
[1] = Pharmacokinetic evaluation in rat; type: in vivo; conditions: male, Sprague-Dawley, plasma, single 5 mg/kg oral dose, Table 1, read-out: Pharmacokinetic area under the plasma concentration Curve (rat) AUC0-∞
In short: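 Male Sprague-Dawley rats (n=3/group) received a single 2 mg/kg IV (jugular slow bolus) or 5 mg/kg oral gavage dose in 10% DMSO/PEG-400; tail-vein plasma sampled to 24 h. Acetonitrile-precipitated plasma quantified by LC-MS/MS (LOQ 0.01 μg/mL); AUC0-∞ by linear trapezoidal rule plus Ct/β extrapolation.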

HCT116 cells [2] = assay: Caspase-3 activity in polyploid cells (Caspase-GLO 3/7); type: cell-based, human; conditions: cells made polyploid with 200 nM AZD1152 (with or without washout); 1 μM ABT-263 for 4 hours; not in diploid cells
Procedure: (§1) Cell viability was determined 72 hours post-transfection. The red curve represents a synergistic combination. […] HCT116 cells (FIG. 10C-FIG. 10F) were treated for 24 hours with DMSO or 200 nM AZD1152. AZD1152 was then either left in the culture medium (AZD 1152) or washed out by replacing the medium with drug-free growth medium (AZD 1152 washout).
Caspase-3 activity was determined using the Caspase-GLO 3/7 Assay (Promega) in tandem with the CellTiter-GLO viability assay (Promega). Parallel experiments were performed, where in one experiment Caspase-3/7 activity was measured and in the other, cell viability was determined. As Caspase-3/7 activity on a per cell basis reflects both the specific activity of the Caspase-3 enzyme and the number of viable cells, the data are expressed as Caspase-3/7 activity divided by cell viability.

HCT116 cells [3] = assay: Cell viability of polyploid cells after ABT-263; type: cell-based, human; conditions: cells made polyploid with 200 nM AZD1152 (with or without washout); 1 μM ABT-263 for 24 hours; not in diploid cells
Procedure: as §1
Generally, cells were seeded at >90% viability (as determined by trypan blue exclusion) into 96-well plates overnight, treated with compounds or siRNAs for indicated duration, and the overall cell viability was determined by measuring luminescence.

AUC(0-inf) [1]: 5.01 µM·h
SMILES: CC1(C)CCC(c2ccc(Cl)cc2)=C(CN2CCN(c3ccc(C(=O)NS(=O)(=O)c4ccc(N[C@H](CCN5CCOCC5)CSc5ccccc5)c(S(=O)(=O)C(F)(F)F)c4)cc3)CC2)C1 [Example 1, N-(4-(4-((2-(4-chlorophenyl)-5,5-dimethyl-1-cyclohex-1-en-1-yl)methyl)piperazin-1-yl)benzoyl)-4-(((1R)-3-(morpholin-4-yl)-1-((phenylsulfanyl)methyl)propyl)amino)-3-((trifluoromethyl)sulfonyl)benzenesulfonamide]
time to detection of active BAX conformer in tumors (HCT116 tumors; ABT-263 75 mkd PO in tumors from mice pretreated 3 days with AZD1152, not in naive tumors): ≤ 4 h
persistence of tumor regression, combination regimen of AZD1152/ABT-263 (HCT116 tumors; HCT116 colon carcinoma model): at least 2 weeks
antitumor efficacy, combination regimen of AZD1152/ABT-263 (HCT116 tumors; HCT116 colon carcinoma model, tumors ~0.5 gram): rapid and more sustained tumor regression
Caspase-3 activity in polyploid cells (HCT116 cells [2]): induced Caspase-3 activity
cell viability of polyploid cells (HCT116 cells [3]): loss of viability
